Laboratory results published in patent US4198506A, “2-Carboxyalkyl-2,3-dihydro-6-mercapto-s-triazolo[4,3-b]-pyridazin-3-ones” (Bristol-Myers Company, priority 1979, dated 1980).
Values after ≈ are worked out from the molar mass of the structure shown. Values joined by “and” are separate entries in the source; they are usually repeats but may differ in a detail not shown here. Equal entries are not always repeated. Where two headings read alike, the source gives them in different places.

Experiments:
[1] = system: Shig. flexneri; assay: In vitro antibacterial activity (Steers' agar dilution MIC); type: cell-based
Source text: (§1) In vitro Antibacterial Activity of BB-S493 Compared with
(§2) BB-S479 and Cefamandole (Determined by Steers' Agar Dilu-
(§3) tion Method on Mueller-Hinton Agar Plate)
(§4) In vitro antibacterial activity of BB-S 525 compared with
(§5) BB-S 479 and cefamandole (determined by Steers' agar dilution
(§6) method on Mueller-Hinton agar plate)

[2] = system: Shig. sonnei; assay: as above; type: cell-based; conditions: Shigella sonnei
Source text: as §1, §2, §3, §4, §5, §6

[3] = system: S. aureus; assay: as above; type: cell-based; conditions: Staphylococcus aureus
Source text: as §1, §2, §3, §4, §5, §6

[4] = system: E. coli; assay: as above; type: cell-based; conditions: Escherichia coli
Source text: as §1, §2, §3, §4, §5, §6

[5] = system: Sal. typhosa; assay: as above; type: cell-based
Source text: as §1, §2, §3, §4, §5, §6

[6] = system: Kl. pneumoniae; assay: as above; type: cell-based; conditions: Klebsiella pneumoniae
Source text: as §1, §2, §3, §4, §5, §6

[7] = system: Enterob. cloacae; assay: as above; type: cell-based
[8] = system: Enterobacter (sensitive); assay: In vitro activity (geometric mean MIC, serial dilution); type: cell-based; conditions: 3 strains, Mueller-Hinton agar, inoculum 10^4 dilution, MIC cutoff 200 mcg./ml., read-out: Geometric Mean MIC
[9] = system: E. coli (sensitive); assay: as above; type: cell-based; conditions: Escherichia coli, read-out: Geometric Mean MIC
[10] = system: Miscellaneous (Salmonella, Shigella, Citrobacter); assay: microbe, parasite or virus in culture; conditions: read-out: Geometric Mean MIC
[11] = system: Proteus (indole-); assay: In vitro activity (geometric mean MIC, serial dilution); type: cell-based; conditions: 6 strains; Mueller-Hinton agar, inoculum 10^4 dilution; MIC cutoff 200 mcg./ml.; read-out: Geometric Mean MIC
[12] = system: S. aureus Smith; assay: In vivo activity (Mice, sc); conditions: several determinations listed
Source text: |In vivo Activity of BB-[…] and Related Compounds (Mice, sc) | (PD50 (mgm./kg.)

[13] = system: Sal. enteritidis; assay: In vitro antibacterial activity (Steers' agar dilution MIC); type: cell-based; conditions: Salmonella enterica
[14] = system: Ps. aeruginosa; assay: as above; type: cell-based
[15] = system: Providencia sp.; assay: In vitro activity (geometric mean MIC, serial dilution); type: cell-based; conditions: read-out: Geometric Mean MIC
[16] = system: Pr. morganii; assay: In vitro antibacterial activity (Steers' agar dilution MIC); type: cell-based; conditions: Morganella morganii
[17] = system: Shig. dysenteriae; assay: as above; type: cell-based; conditions: Shigella dysenteriae
[18] = system: B. anthracis; assay: microbe, parasite or virus in culture; type: cell-based; conditions: Bacillus anthracis
[19] = system: E. coli (Penicillinase +); assay: In vitro activity (geometric mean MIC, serial dilution); type: cell-based; conditions: Escherichia coli; 7 strains; Mueller-Hinton agar, inoculum 10^4 dilution; MIC cutoff 200 mcg./ml.; read-out: Geometric Mean MIC
[20] = system: S. aureus (sensitive); assay: as above; type: cell-based; conditions: Staphylococcus aureus, read-out: Geometric Mean MIC
[21] = system: Serr. marcescens; assay: In vitro antibacterial activity (Steers' agar dilution MIC); type: cell-based; conditions: Serratia marcescens
[22] = system: S. pyogenes; assay: In vitro activity (geometric mean MIC, serial dilution); type: cell-based; conditions: Streptococcus pyogenes; 10 strains; Mueller-Hinton agar, inoculum 10^4 dilution; MIC cutoff 200 mcg./ml.
[23] = system: Pr. mirabilis; assay: In vitro antibacterial activity (Steers' agar dilution MIC); type: cell-based; conditions: Proteus mirabilis
[24] = system: S. marcescens; assay: In vitro activity (geometric mean MIC, serial dilution); type: cell-based; conditions: Serratia marcescens; 16 strains; Mueller-Hinton agar, inoculum 10^4 dilution; MIC cutoff 200 mcg./ml.; read-out: Geometric Mean MIC
[25] = system: St. faecalis; assay: In vitro antibacterial activity (Steers' agar dilution MIC); type: cell-based; conditions: Enterococcus faecalis

Cn1nnnc1SCC1=C(C(=O)O)N2C(=O)[C@@H](NC(=O)[C@H](O)c3ccccc3)[C@H]2SC1 [Cefamandole, reference compound]
MIC ([1]; Shigella flexneri, table 2 (BB-S493), Shig. flexneri A9684, read-out: MIC): 3.1 µg/mL (≈ 6.7 µM)
MIC ([1]; table 4 (BB-S 525), Shig. flexneri): 3.1 µg/mL (≈ 6.7 µM)
MIC ([2]; table 2 (BB-S493), Shig. sonnei A9516): 0.05 µg/mL (≈ 0.108 µM)
MIC ([2]; table 4 (BB-S 525), Shig. sonnei): 0.2 µg/mL (≈ 0.432 µM)
MIC ([3]; table 2 (BB-S493), S. aureus A9497): 0.05 µg/mL (≈ 0.108 µM)
MIC ([3]; table 2 (BB-S493), S. aureus BX-1633 A9606): 0.2 µg/mL (≈ 0.432 µM)
MIC ([3]; table 2 (BB-S493), S. aureus Smith A9537): 0.1 µg/mL (≈ 0.216 µM)
MIC ([3]; table 4 (BB-S 525), S. aureus (strain not given)): 0.05 µg/mL (≈ 0.108 µM)
MIC ([3]; table 4 (BB-S 525), S. aureus BX-1633): 0.2 µg/mL (≈ 0.432 µM)
MIC ([3]; table 4 (BB-S 525), S. aureus Smith): 0.2 µg/mL (≈ 0.432 µM)
MIC ([4]; ATCC8739, table 2 (BB-S493), E. coli ATCC 8739, read-out: MIC): 0.05 µg/mL (≈ 0.108 µM)
MIC ([4]; ATCC8739, table 4 (BB-S 525), E. coli ATCC 8739): 6.3 µg/mL (≈ 13.6 µM)
MIC ([4]; table 2 (BB-S493), E. coli A9660, read-out: MIC): 0.1 µg/mL (≈ 0.216 µM)
MIC ([4]; table 2 (BB-S493), E. coli A15147, read-out: MIC): 3.1 µg/mL (≈ 6.7 µM)
MIC ([4]; table 2 (BB-S493), E. coli A15810, read-out: MIC): 0.2 µg/mL (≈ 0.432 µM)
MIC ([4]; table 2 (BB-S493), E. coli BX-1373, read-out: MIC): 0.4 µg/mL (≈ 0.865 µM)
MIC ([4]; table 2 (BB-S493), E. coli Juhl A15119, read-out: MIC): 0.4 µg/mL (≈ 0.865 µM)
MIC ([4]; table 2 (BB-S493), E. coli NIHJ, read-out: MIC): 0.025 µg/mL (≈ 0.0541 µM)
MIC ([4]; table 4 (BB-S 525), E. coli BX-1373, read-out: MIC): 0.2 µg/mL (≈ 0.432 µM)
MIC ([4]; table 4 (BB-S 525), E. coli Juhl, read-out: MIC): 0.4 µg/mL (≈ 0.865 µM)
MIC ([4]; table 4 (BB-S 525), E. coli NIHJ, read-out: MIC): 0.1 µg/mL (≈ 0.216 µM)
MIC ([4]; table 4 (BB-S 525), E. coli, strain not given, 1st line, read-out: MIC): 0.1 µg/mL (≈ 0.216 µM)
MIC ([4]; table 4 (BB-S 525), E. coli, strain not given, 2nd line, read-out: MIC): 0.05 µg/mL (≈ 0.108 µM)
MIC ([4]; table 4 (BB-S 525), E. coli, strain not given, 3rd line, read-out: MIC): 1.6 µg/mL (≈ 3.46 µM)
MIC ([5]; table 2 (BB-S493), Sal. typhosa A9498): 0.1 µg/mL (≈ 0.216 µM)
MIC ([5]; table 4 (BB-S 525), Sal. typhosa): 0.1 µg/mL (≈ 0.216 µM)
MIC ([6]; table 2 (BB-S493), Kl. pneumoniae A9678): 1.6 µg/mL (≈ 3.46 µM)
MIC ([6]; table 2 (BB-S493), Kl. pneumoniae A9867): 0.8 µg/mL (≈ 1.73 µM)
MIC ([6]; table 2 (BB-S493), Kl. pneumoniae A9977): 0.4 µg/mL (≈ 0.865 µM)
MIC ([6]; table 2 (BB-S493), Kl. pneumoniae A15130): 0.4 µg/mL (≈ 0.865 µM)
MIC ([6]; table 4 (BB-S 525), Kl. pneumoniae, 1st line): 3.1 µg/mL (≈ 6.7 µM)
MIC ([6]; table 4 (BB-S 525), Kl. pneumoniae, 2nd line): 0.2 µg/mL (≈ 0.432 µM)
MIC ([6]; table 4 (BB-S 525), Kl. pneumoniae, 3rd line): 0.8 µg/mL (≈ 1.73 µM)
MIC ([6]; table 4 (BB-S 525), Kl. pnuemoniae, 4th line): 0.8 µg/mL (≈ 1.73 µM)
MIC ([7]; table 2 (BB-S493), Enterob. cloacae A9656): 3.1 µg/mL (≈ 6.7 µM)
MIC ([7]; table 4 (BB-S 525), Enterob. cloacae): 1.6 µg/mL (≈ 3.46 µM)
MIC [8]: 1 µg/mL (≈ 2.16 µM)
MIC [9]: 0.3 µg/mL (≈ 0.649 µM)
MIC [10]: 0.3 µg/mL (≈ 0.649 µM)
MIC [11]: 0.6 µg/mL (≈ 1.3 µM)
ED50 ([12]; Staphylococcus aureus, read-out: PD50): 0.93 mg/kg
PD50 [12]: 0.74 mgm./kg. and 0.6 mgm./kg. and 0.8 mgm./kg.
MIC ([13]; table 2 (BB-S493), Sal. enteritidis A9531): 0.1 µg/mL (≈ 0.216 µM)
MIC ([13]; table 4 (BB-S 525), Sal. enteritidis): 0.1 µg/mL (≈ 0.216 µM)
MIC ([14]; Pseudomonas aeruginosa, table 2 (BB-S493), Ps. aeruginosa A9843, read-out: MIC): > 100 µg/mL
MIC ([14]; table 2 (BB-S493), Ps. aerugionsa A9930): > 100 µg/mL
MIC ([14]; table 4 (BB-S 525), Ps. aeruginosa, 1st line): > 100 µg/mL
MIC ([14]; table 4 (BB-S 525), Ps. aeruginosa, 2nd line): > 100 µg/mL
MIC [15]: 0.7 µg/mL (≈ 1.51 µM)
MIC ([16]; table 2 (BB-S493), Pr. morganii A9553, read-out: MIC): > 100 µg/mL
MIC ([16]; table 2 (BB-S493), Pr. morganii A20031): 0.8 µg/mL (≈ 1.73 µM)
MIC ([16]; table 4 (BB-S 525), Pr. morganii, 1st line): 3.1 µg/mL (≈ 6.7 µM)
MIC ([16]; table 4 (BB-S 525), Pr. morganii, 2nd line): 0.8 µg/mL (≈ 1.73 µM)
MIC ([17]; table 2 (BB-S493), Shig dysenteriae): 0.2 µg/mL (≈ 0.432 µM)
MIC ([17]; table 4 (BB-S 525), Shig. dysenteriae): 0.1 µg/mL (≈ 0.216 µM)
MIC ([18]; table 2 (BB-S493), B. anthracis A9504): 0.2 µg/mL (≈ 0.432 µM)
MIC ([18]; table 4 (BB-S 525), B. anthracis): 0.05 µg/mL (≈ 0.108 µM)
MIC [19]: 5.7 µg/mL (≈ 12.3 µM)
MIC [20]: 0.1 µg/mL (≈ 0.216 µM)
MIC ([21]; table 4 (BB-S 525), Serr. marcescens): 50 µg/mL (≈ 108 µM)
MIC ([21]; table 2 (BB-S493), Serr. marcescens A20019): 50 µg/mL (≈ 108 µM)
MIC [22]: 0.04 µg/mL (≈ 0.0865 µM)
MIC ([23]; table 2 (BB-S493), Pr. mirabilis A9554): 0.8 µg/mL (≈ 1.73 µM)
MIC ([23]; table 2 (BB-S493), Pr. mirabilis A9900): 0.8 µg/mL (≈ 1.73 µM)
MIC ([23]; table 4 (BB-S 525), Pr. mirabilis, 1st line): 0.4 µg/mL (≈ 0.865 µM)
MIC ([23]; table 4 (BB-S 525), Pr. mirabilis, 2nd line, read-out: MIC): 0.2 µg/mL (≈ 0.432 µM)
MIC [24]: 34 µg/mL (≈ 73.5 µM)
MIC [25]: 50 µg/mL (≈ 108 µM)
MIC ([25]; table 4 (BB-S 525), St. faecalis, read-out: MIC): 100 µg/mL (≈ 216 µM)
